Several values for one entry are separate records, joined by “and”; a condition that tells them apart may be missing. Equal entries are not always repeated. Where two headings read alike, the source gives them in different places.

Data set [1] relates to primary astrocytes derived from PGC-1α WT (PGC-1α+/+) mice. As to the kind of experiment: LPS-induced inflammation in primary astrocytes from PGC-1α WT mice (RT-PCR gene expression). Format: cell-based, mouse. The following applies: fenofibrate 20 μM overnight, then LPS 1 hour. How it is done:
(§1) Total RNA was isolated and IL-1β (A, D), TNF-α (B, E) and PGC-1α (C, F) gene expression were determined by RT-PCR.
(§2) Primary astrocytes from postnatal heterozygous mice were isolated and cultured and wild type mice were obtained by breeding these heterozygous knockout mice. […] Total RNA was isolated, and gene expression of pro-inflammatory cytokines, IL-1β and TNF-α, was determined by RT-PCR.

Data set [2] relates to primary astrocytes derived from PGC-1α heterozygous KO (PGC-1α+/−) mice. In words: LPS-induced inflammation in primary astrocytes from PGC-1α heterozygous KO mice (RT-PCR gene expression). It is filed as cell-based, mouse. How it is done:
as §1, §2

The test system of data set [3] is BV2 cells. In words: LPS-induced IL-1β and PGC-1α gene expression in BV2 cells (qRT-PCR). Format: cell-based. The following applies: for reduction of LPS-induced IL-1β expression: then 0.1 ng/ml LPS 1 hour. An excerpt:
FIG. 4. […] Then total RNA was isolated for IL-1β gene qRT-PCR analysis.
FIGS. 7A and 7B. […] Cell lysates were collected, and RNA was isolated for IL-1β (FIG. 7A) and PGC-1α (FIG. 7B) gene expression by RT-PCR.
Total BV2 cell RNA was extracted for IL-1β gene expression via qRT-PCR analysis.
Cell lysates were collected for determination of IL-1β and PGC-1α gene expression via qRT-PCR.
(In general: Quantitative PCR measures a nucleic acid by following its amplification.)

Data set [4] in a line: Hydrolysis of fenofibrate to fenofibric acid by pooled human liver microsomes (Km, Vmax). The following applies: pH 7.4. How it is done: FIGS. 8A and 8B. […] Reaction was stopped, supernatant collected and fenofibric acid level was determined by LC-MS/MS. […] The samples were analyzed in duplicates and represented as mean values.
The reactions were stopped by the addition of a stop solution containing an internal standard.

The target in data set [5] is T1, recombinant hCES1b (Homo sapiens, UniProt P23141).
T1 sequence (P23141 18-567): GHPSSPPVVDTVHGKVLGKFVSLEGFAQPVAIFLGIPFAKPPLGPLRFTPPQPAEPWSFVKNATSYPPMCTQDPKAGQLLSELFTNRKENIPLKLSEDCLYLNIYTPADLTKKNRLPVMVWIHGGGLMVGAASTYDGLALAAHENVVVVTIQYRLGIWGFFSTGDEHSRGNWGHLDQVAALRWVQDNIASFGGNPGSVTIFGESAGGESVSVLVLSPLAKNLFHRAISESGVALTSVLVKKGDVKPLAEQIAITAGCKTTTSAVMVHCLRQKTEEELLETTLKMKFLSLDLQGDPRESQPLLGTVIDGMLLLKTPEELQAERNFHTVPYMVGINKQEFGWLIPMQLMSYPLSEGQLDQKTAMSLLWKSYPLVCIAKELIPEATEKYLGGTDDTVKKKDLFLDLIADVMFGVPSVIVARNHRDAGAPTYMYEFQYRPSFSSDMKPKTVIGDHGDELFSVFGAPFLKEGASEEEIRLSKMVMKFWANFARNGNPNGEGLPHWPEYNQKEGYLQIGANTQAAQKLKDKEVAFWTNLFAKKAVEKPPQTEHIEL
As to the kind of experiment: Inhibition of hCES1b-mediated fenofibrate hydrolysis (Ki). Format: biochemical. The following applies: matrix hCES1b, substrate fenofibrate. How it is done:
FIGS. 5A-5D. […] Reaction was stopped, supernatant collected and fenofibric acid level was determined by LC-MS/MS. Ki values were calculated, and the type of inhibition was determined by fitting data to enzyme inhibition models: competitive (FIG. 5A), non-competitive (FIG. 5B), uncompetitive (FIG. 5C) and mixed (FIG. 5D) models. The samples were analyzed in duplicates and represented as mean values.
(§3) Incubation mixtures containing 100 mM Tris-Cl buffer (pH 7.4), recombinant hCES1b (0.05 mg/mL) or pooled human liver microsomes (1 mg/mL) and 8 concentrations of kaempferol or a positive control inhibitor (bis(4-nitrophenyl)-phosphate, BNP) were pre-incubated for 2 minutes at 37° C. […] The reactions were stopped by the addition of a stop solution containing an internal standard. Samples were centrifuged to precipitate protein and the supernatant was collected for LC-MS/MS analysis. The fenofibric acid was quantified using standard curves. The Ki values were calculated, and the type of inhibition was determined by fitting data to specific enzyme inhibition models (Table 2).

Data set [6] has as its target pooled human liver microsomes (HLM). As to the kind of experiment: Inhibition of fenofibrate hydrolysis in pooled human liver microsomes (Ki). The following applies: matrix HLM, substrate fenofibrate. Format: in vitro ADME. How it is done: FIGS. 6A-6D. […] The reaction was stopped, supernatant collected and fenofibric acid level was determined by LC-MS/MS. Ki values were calculated, and the type of inhibition was determined by fitting data to enzyme inhibition models: competitive (FIG. 6A), non-competitive (FIG. 6B), uncompetitive (FIG. 6C) and mixed (FIG. 6D) models. The samples were analyzed in duplicates and represented as mean values.
as §3
Background: Microsomes from liver hold many membrane-bound enzymes, among them those of drug oxidation.

Substrate in data set [7]: CC(C)OC(=O)C(C)(C)Oc1ccc(C(=O)c2ccc(Cl)cc2)cc1
In words: cells, lysate or membranes named. It is filed as biochemical, human. The following applies: other: matrix hCES1b 0.05 mg/mL, product fenofibric acid, pH 7.4, 37° C.

The mark [8] stands for this setting: read-out: Ki, Competitive inhibition model.
[9] abbreviates: read-out: Ki, Mixed inhibition model.
[10] abbreviates: read-out: Ki, Non-Competitive inhibition model.
The mark [11] stands for this setting: read-out: Ki, Uncompetitive inhibition model.

As to `CC(C)OC(=O)C(C)(C)Oc1ccc(C(=O)c2ccc(Cl)cc2)cc1` [Fenofibrate], the “reduction of LPS-induced IL-1β expression” value in data set [1] is 60%; in data set [2] (fenofibrate overnight (5, 10, 20 μM tested; concentration not stated), then LPS 1 hour), 55%; in data set [3] (20 μM, 18 hours), 80% and 70%. Also, the “enhancement of PGC-1α expression” value in data set [2] (fenofibrate 10 and 20 μM) amounted to 1.5 fold. For the same molecule, the “increase of PGC-1α expression” value in data set [3] (20 μM, 18 hours, then LPS 1 hour) was 2 fold. Besides, the Michaelis constant (Km) at 10 min in data set [4] turned out to be 5.4 µM.

As to `O=c1c(O)c(-c2ccc(O)cc2)oc2cc(O)cc(O)c12` [Kaempferol, 3,5,7-trihydroxy-2-(4-hydroxyphenyl)-4H-1-benzopyran-4-one], the “reduction of LPS-induced IL-1β expression” value in data set [3] (10 μM, 18 hours) came to 60%; in data set [3] (20 μM, 18 hours), 85%. Further, in data set [3] (kaempferol alone 10, 20 μM), the “effect on PGC-1α expression” value is “did not enhance PGC-1α expression”. Further, the Ki in data set [5] (setting [8]) is 36.2 µM; in data set [5] (setting [9]) it was 101 µM; in data set [5] (setting [10]), 101 µM; in data set [5] (setting [11]), 64.7 µM; in data set [6] (setting [8]), 110 µM; in data set [6] (setting [10]) it was 235 µM. For the same molecule, in data set [6] (setting [11]), the inhibitory constant (Ki) came out at 131 µM.

For the molecule `O=[N+]([O-])c1ccc(OP(=O)(O)Oc2ccc([N+](=O)[O-])cc2)cc1` [BNP, bis(4-nitrophenyl)-phosphate], the Ki came out at 0.044 µM in data set [5] (setting [8]); 0.044 µM in data set [5] (setting [9]); 0.17 µM in data set [5] (setting [10]); 0.096 µM in data set [5] (setting [11]); 1.67 µM in data set [6] (setting [8]); 1.66 µM in data set [6] (setting [9]). Further, the Ki came out at 5.17 µM in data set [6] (setting [10]) and 3.02 µM in data set [6] (setting [11]).

B1: recombinant hCES1b (Homo sapiens) (protein)
chain: T1 sequence (P23141 18-567)
As to B1, in data set [7], the Michaelis constant (Km) came to 6.04 µM and the Vmax came to 0.0283 µmol/min/mg.

For orientation: Km means the concentration of substrate that gives half-maximal velocity. By Ki is commonly meant a dissociation constant, usually derived from enzyme kinetics or from competition with a known ligand. One may read the Vmax as the top rate of the reaction or transport when substrate is in excess.

(Values after patent US20220401404A1, “Co-Administration Therapy to Prevent Neurodegeneration and Enhance Neuroprotection” (THE REGENTS OF THE UNIVERSITY OF CALIFORNIA, priority 2019, published 2022).)
